{"source": "patent US8852648B2", "about": "“Delivery of biologically-active agents using volatile, hydrophobic solvents” (Rochal Industries, LLP, priority 2012, dated 2014)", "key": {"[1]": {"conditions": "in water; cited from earlier work"}, "[2]": {"test_system": "mammalian cells such as fibroblasts, kidney cells, and cancer cells", "conditions": "in water solution; cited from earlier work"}, "[3]": {"test_system": "albino rabbits", "experiment": "Animal skin-irritation study, Draize scoring", "type": "in vivo, rabbit", "conditions": "Cavilon solution containing 0.5 wt % AOT", "procedure": "Another concern with the use of a reverse emulsion surfactant for its application to mammalian skin is its potential to cause skin irritation. It has been reported that in water solution AOT can be irritating to skin (M. Changez and M. Varshney, Drug Development and Industrial Pharmacy, 26(5), 507-512 (2000)). To test if AOT is skin-irritating when used in a volatile, hydrophobic solvent with the presence of polymer, an animal skin-irritation study was conducted by Toxikon Corporation, Cavilon solution containing 0.5 wt % AOT was examined, and Cavilon solution was used as a negative control.\nThree albino rabbits were used for the skin irritation study. The application sites were prepared by clipping the skin of the trunk free of hair within 24 h before application of the test and control substances. The animals were treated by applying an AOT-containing Cavilon solution and the Cavilon negative control (0.5 mL) directly onto skin over a skin area of approximate 6 cm^2. The test solution was applied to the skin on the left side of the spine and the control solution was applied to the skin on the right side of the spine. The AOT solution and the negative control were each applied sequentially to three sites, and observed at 6, 24, 48, and 72 h for signs of erythema and edema. Observations were scored according to the Draize Scale for Scoring. […]"}, "[4]": {"test_system": "Gram positive bacteria such as Staphylococcus aureus", "conditions": "reported, G. N. Kern; cited from earlier work"}, "[5]": {"test_system": "Candida albicans, ATCC 10231", "experiment": "Zone of inhibition, antimicrobials in AOT and Cavilon, TSA plates", "type": "cell-based", "conditions": "for ZOI 24 h / ZOI 48 h / ZOI 72 h: agent with AOT in Cavilon polymer, HMDS/ISO, 0.1 mL per cylinder, Roccal 1 %", "procedure": "(§1) All microbiological testing was done by INCELL Corporation, San Antonio, Tex. All zones of inhibition data were measured in mm.\nThe zones of inhibition testing was also performed with Candida albicans, purchased from ATCC and expanded in Tryptic soy broth overnight. This fungi culture was diluted to 0.1 OD 600 units and spread onto TSA plates. Sterile cloning cylinders were placed on the TSA plates, charged with the biologically-active agent in a volatile, hydrophobic solvent (0.1 mL per cylinder) and allowed to air dry for 1 h at room temperature. A 1% Roccal solution was used as a positive control. The TSA plates were observed and photographed after 24 h, 48 h, and 72 h. Images were used to measure zone of inhibition or areas of clearing surrounding the delivered material.\n(§2) The polymer substrate chosen for the sustained release studies of biologically-active antimicrobial over time was Cavilon. The Cavilon solution is composed of a proprietary acrylate polymer and a smaller amount of polyphenylmethylsiloxane in HMDS and ISO. This was used as a negative control for all zone of inhibition studies (Tables 8-10)."}, "[6]": {"test_system": "Candida albicans", "conditions": "reported, G. N. Kern; cited from earlier work"}, "[7]": {"test_system": "Gram negative bacteria such as Pseudomonas aeruginosa", "conditions": "reported, G. N. Kern; cited from earlier work"}, "[8]": {"test_system": "methicillin-resistant Staphylococcus aureus, ATCC 700787", "experiment": "Zone of inhibition, antimicrobials in AOT and Cavilon, TSA plates", "type": "cell-based", "procedure": "as §1\n(§3) The zones of inhibition testing for methicillin-resistant Staphylococcus aureus and Pseudomonas aeruginosa were performed as described below. The bacteria were purchased from ATCC and expanded in Tryptic soy broth overnight. Each of the bacteria cultures was then spread onto Tryptic soy agar (TSA) plates. Sterile cloning cylinders containing the biologically-active agent in a volatile, hydrophobic solvent (0.1 mL per cylinder) were placed on the TSA plates and allowed to air dry for 1 h at room temperature. Neosporin was used as a positive control. The TSA plates were observed and photographed after 24 h, 48 h, and 72 h. Images were used to measure zone of inhibition or areas of clearing surrounding the delivered material.\nas §2"}, "[9]": {"test_system": "Pseudomonas aeruginosa, ATCC 27853", "experiment": "Zone of inhibition, antimicrobials in AOT and Cavilon, TSA plates", "type": "cell-based", "conditions": "for ZOI 24 h / ZOI 48 h / ZOI 72 h: agent with AOT in Cavilon polymer, HMDS/ISO, 0.1 mL per cylinder, Neosporin 100 μL; for ZOI behaviour in words: with AOT in Cavilon polymer, over three days", "procedure": "as §1, §3, §2"}, "[10]": {"conditions": "in water solution; cited from earlier work"}, "[11]": {"test_system": "L929 mouse fibroblast cell", "experiment": "Cytotoxicity testing, agar overlay with neutral red", "conditions": "for Zone Size / Grade (biological reactivity): 0.05 wt % AOT in Cavilon; for Zone Size: applied to agar surface; for Grade (biological reactivity): scale Grade 0 to Grade 4", "procedure": "Also of consideration for application to animal and human skin is the potential of toxicity to mammalian cells for reverse emulsion surfactants such as AOT. […] […] Cavilon solution without AOT was used as a negative control.\nThe biological reactivity of L929 mouse fibroblast cell in response to the AOT Cavilon solution was determined. The monolayer of fibroblasts was cultured in an agar plate, and the cell viability was evaluated using a vital dye (neutral red). The AOT Cavilon solution was applied directly to the surface of the agar. Positive (Buna-N-Rubber) and negative (Negative Control Plastic, Cavilon solution) control articles were prepared to verify the proper functioning of the test system. The cultures were incubated at 37±1° C., in a humidified atmosphere containing 5±1% carbon dioxide. Zone of inhibition was measured, and biological reactivity (cellular degeneration and malformation) was rated on a scale from Grade 0 (No reactivity) to Grade 4 (Severe reactivity) at 24 and 48 hours. The experiment was run in triplicate."}, "[12]": {"experiment": "Solubility in non-polar hydrophobic solvents ISO and HMDS", "type": "physicochemical", "conditions": "without reverse emulsion surfactant", "from_the_text": "For all formulations in the following Examples, each biologically-active agent was inherently insoluble in the non-polar, hydrophobic solvents tested, namely, isooctane (ISO) and hexamethyldisiloxane (HMDS). Solubility occurred in the presence of a reverse emulsion surfactant, with or without the presence of added water, to give optically clear, homogeneous solutions. Since the concentrations of the biologically-active agents (Active) were considerably less than that of the solvent used, the data in the Tables pertaining to all ingredients were rounded-off to the next highest number."}, "[13]": {"conditions": "24 h, agent with AOT in Cavilon polymer, HMDS/ISO, 0.1 mL per cylinder, Neosporin 100 μL"}, "[14]": {"conditions": "48 h, agent with AOT in Cavilon polymer, HMDS/ISO, 0.1 mL per cylinder, Neosporin 100 μL"}, "[15]": {"conditions": "72 h, agent with AOT in Cavilon polymer, HMDS/ISO, 0.1 mL per cylinder, Neosporin 100 μL"}, "[16]": {"conditions": "with AOT in Cavilon polymer, over three days"}}, "note": "“Also recorded” adds a separate entry of the source. Where a name gives a salt, the structure may show the parent alone. Read-outs that look alike come from different tables or passages of the source.", "data": [{"smiles": "CCCCC(CC)CNC(=N)NC(=N)NCCCCCCNC(=N)NC(=N)NCC(CC)CCCC", "note": "(stereo not shown) [ALEX, 1,1′-hexamethylenebis[5-(2-ethylhexyl)biguanide]dihydrochloride]", "values": [{"measurement": "water solubility", "setting": "[1]", "value": 0.1, "unit": "%"}]}, {"smiles": "CCCCC(CC)COC(=O)CC(C(=O)OCC(CC)CCCC)S(=O)(=O)[O-].[Na+]", "note": "(stereo not shown) [AOT, sodium bis(2-ethylhexyl)sulfosuccinate]", "values": [{"measurement": "cytotoxic concentration", "setting": "[2]", "value": 0.002, "unit": "wt %"}, {"measurement": "signs of erythema or edema", "setting": "[3]; 0.5 mL on skin, observed at 6, 24, 48, and 72 h", "value": "None of the AOT solution sites presented any signs of erythema or edema"}, {"measurement": "skin irritation classification", "setting": "[3]; Draize Scale", "value": "non-irritant"}, {"measurement": "antibacterial activity, in words", "setting": "[4]", "value": "active"}, {"measurement": "ZOI 24 h", "setting": "[5]", "value": 12.7, "unit": "mm"}, {"measurement": "ZOI 48 h", "setting": "[5]", "value": 12.4, "unit": "mm"}, {"measurement": "ZOI 72 h", "setting": "[5]", "value": 13.3, "unit": "mm"}, {"measurement": "antifungal activity, in words", "setting": "[6]", "value": "effective"}, {"measurement": "antibacterial activity, in words", "setting": "[7]", "value": "inactive"}, {"measurement": "ZOI 24 h", "setting": "[8]", "value": 5.34, "unit": "mm"}, {"measurement": "ZOI 48 h", "setting": "[8]", "value": 6.3, "unit": "mm"}, {"measurement": "ZOI 72 h", "setting": "[8]", "value": 5.32, "unit": "mm"}, {"measurement": "ZOI behaviour in words", "setting": "[8]", "value": "active"}, {"measurement": "ZOI 24 h", "setting": "[9]", "value": 8.18, "unit": "mm"}, {"measurement": "ZOI 48 h", "setting": "[9]", "value": 8.22, "unit": "mm"}, {"measurement": "ZOI 72 h", "setting": "[9]", "value": 11.2, "unit": "mm"}, {"measurement": "ZOI behaviour in words", "setting": "[9]", "value": "considerably more effective against Pseudomonas aeruginosa than Neosporin; also recorded: highly effective"}, {"measurement": "skin irritation, in words", "setting": "[10]", "value": "irritating"}, {"measurement": "Zone Size", "setting": "[11]; 24 hours", "value": 0, "unit": "cm"}, {"measurement": "Grade (biological reactivity)", "setting": "[11]; 24 hours", "value": 0}, {"measurement": "Zone Size", "setting": "[11]; 48 hours", "value": 0, "unit": "cm"}, {"measurement": "Grade (biological reactivity)", "setting": "[11]; 48 hours", "value": 0}, {"measurement": "toxicity to mammalian cells, in words", "setting": "[11]; AOT Cavilon solution, 0.5 wt % AOT", "value": "not toxic"}]}, {"smiles": "O=[N+]([O-])[O-].[Ag+]", "note": "[AgNO3, Silver Nitrate]", "values": [{"measurement": "ZOI 24 h", "setting": "[8]; [13]", "value": 8.16, "unit": "mm"}, {"measurement": "ZOI 48 h", "setting": "[8]; [14]", "value": 9, "unit": "mm"}, {"measurement": "ZOI 72 h", "setting": "[8]; [15]", "value": 8.18, "unit": "mm"}, {"measurement": "ZOI behaviour in words", "setting": "[8]; [16]", "value": "highly effective"}]}, {"smiles": "N=C(NCCCCCCNC(=N)NC(=N)Nc1ccc(Cl)cc1)NC(=N)Nc1ccc(Cl)cc1.O=C(O)[C@H](O)[C@@H](O)[C@H](O)[C@H](O)CO.O=C(O)[C@H](O)[C@@H](O)[C@H](O)[C@H](O)CO", "note": "[CHG, Chlorhexidine Digluconate]", "values": [{"measurement": "water solubility", "setting": "[1]", "value": 20, "unit": "%"}, {"measurement": "ZOI 24 h", "setting": "[8]; [13]", "value": 11.53, "unit": "mm"}, {"measurement": "ZOI 48 h", "setting": "[8]; [14]", "value": 11.03, "unit": "mm"}, {"measurement": "ZOI 72 h", "setting": "[8]; [15]", "value": 11.67, "unit": "mm"}, {"measurement": "ZOI behaviour in words", "setting": "[8]; [16]", "value": "exceptional results"}, {"measurement": "ZOI 24 h", "setting": "[9]", "value": 2.77, "unit": "mm"}, {"measurement": "ZOI 48 h", "setting": "[9]", "value": 0, "unit": "mm"}, {"measurement": "ZOI 72 h", "setting": "[9]", "value": 0, "unit": "mm"}, {"measurement": "ZOI behaviour in words", "setting": "[9]", "value": "less effective"}]}, {"smiles": "Clc1ccc(COC(Cn2ccnc2)c2ccc(Cl)cc2Cl)c(Cl)c1", "note": "(stereo not shown) [MICON, Miconazole Nitrate]", "values": [{"measurement": "ZOI 24 h", "setting": "[5]", "value": 16.5, "unit": "mm"}, {"measurement": "ZOI 48 h", "setting": "[5]", "value": 14.9, "unit": "mm"}, {"measurement": "ZOI 72 h", "setting": "[5]", "value": 15, "unit": "mm"}, {"measurement": "ZOI behaviour in words", "setting": "[5]; [16]", "value": "superior to that of AOT by itself and PHMB with AOT"}]}, {"smiles": "NC[C@@H]1O[C@H](O[C@@H]2[C@@H](CO)OC(O[C@@H]3[C@@H](O)[C@H](N)C[C@H](N)[C@H]3OC3O[C@H](CN)[C@@H](O)[C@H](O)[C@H]3N)[C@@H]2O)[C@H](N)[C@@H](O)[C@@H]1O", "note": "(stereo partly shown) [NEO, Neomycin Trisulfate]", "values": [{"measurement": "ZOI 24 h", "setting": "[8]; [13]", "value": 8.95, "unit": "mm"}, {"measurement": "ZOI 48 h", "setting": "[8]; [14]", "value": 8.94, "unit": "mm"}, {"measurement": "ZOI 72 h", "setting": "[8]; [15]", "value": 9.71, "unit": "mm"}, {"measurement": "ZOI behaviour in words", "setting": "[8]; [16]", "value": "highly effective"}, {"measurement": "ZOI 24 h", "setting": "[9]", "value": 7.43, "unit": "mm"}, {"measurement": "ZOI 48 h", "setting": "[9]", "value": 6.41, "unit": "mm"}, {"measurement": "ZOI 72 h", "setting": "[9]", "value": 7.61, "unit": "mm"}]}, {"smiles": "CCCCCCCCCCCC(=O)[O-].[Na+]", "note": "[SL, sodium dodecanoate]", "values": [{"measurement": "solubility in isooctane (ISO) and hexamethyldisiloxane (HMDS)", "setting": "[12]", "value": "insoluble"}]}]}
